Reference: PMC9403976, “Elucidating the path to Plasmodium prolyl-tRNA synthetase inhibitors that overcome halofuginone resistance” (Nature Communications, 2022)
“And” between values parts separate entries of the source, which are not always exact repeats. Equal values may be shown once. Read-outs that look alike come from different tables or passages of the source.

Experiments:
HsProRS = HsProRS (Homo sapiens, UniProt P07814); test: TR-FRET ligand displacement assay with tracer MAT379 (CoraFluor-1-Halo and anti-His6 antibody formats); type: binding; design: made in house; host or cells: E. coli SoluBL-21; conditions: for normalized TR-FRET signal (Fig 2k): 15 pM HT-HsProRS; for normalized TR-FRET signal (dose-response replicates): SI Fig 15, titrating, listed as ProSA (25)
Chain of HsProRS (P07814 996-1512): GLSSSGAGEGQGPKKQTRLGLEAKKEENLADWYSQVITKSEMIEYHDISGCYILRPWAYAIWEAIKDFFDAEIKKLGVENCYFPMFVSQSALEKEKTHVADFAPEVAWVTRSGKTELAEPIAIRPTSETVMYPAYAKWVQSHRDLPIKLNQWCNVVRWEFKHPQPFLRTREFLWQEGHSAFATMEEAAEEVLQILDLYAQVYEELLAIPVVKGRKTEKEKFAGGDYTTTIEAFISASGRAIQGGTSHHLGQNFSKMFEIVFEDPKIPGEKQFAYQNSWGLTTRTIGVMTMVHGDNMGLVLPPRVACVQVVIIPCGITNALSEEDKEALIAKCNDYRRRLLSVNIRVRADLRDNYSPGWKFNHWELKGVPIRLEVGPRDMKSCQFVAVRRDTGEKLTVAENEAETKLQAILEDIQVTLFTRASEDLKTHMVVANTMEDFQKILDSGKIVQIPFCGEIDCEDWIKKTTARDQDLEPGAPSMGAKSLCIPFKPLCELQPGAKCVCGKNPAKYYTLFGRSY

[1] = test system: P. falciparum Dd2-2D4 NCP26 selections S1-3; test: ABS growth assay on bulk populations and clones from NCP26 resistance selections S1-3; type: cell-based, Plasmodium falciparum; conditions: for EC50: Plasmodium falciparum; for Fold-change Resistance: independent experiments
Procedure: In short, P. falciparum erythrocytic-stage parasites at 1% parasitemia and 1% hematocrit in RPMI + 0.5% Albumax were seeded at 40 μL/well in 384-well plates with test compounds in triplicate, dose-response format with 10 μM dihydroartemisinin as a kill-control and blank (no compound) wells as a growth-control. […] After 72 h, growth was quantified by measuring fluorescence (Molecular Devices SpectraMax iD5) following SYBR Green 1 staining. Data were analyzed in Excel and plotted in PRISM (V. 8.4.3–9.1.0, GraphPad).
This cycle was repeated for ~50 generations (~100 days), corresponding to 5–6 cycles of drug pressure.
Clonal parasites were isolated from each selection flask by limiting dilution of ring stage parasites in 96-well plates to an average of 0.8 and 0.2 parasites per well.

P. falciparum Dd2-2D4 = test: P. falciparum asexual blood stage (ABS) growth assay, SYBR Green, 72 h, wild-type parasites; type: cell-based, Plasmodium falciparum; conditions: Plasmodium falciparum
[2] = DD2, cell line S1 - Clone A8, read-out: EC50 [nM] mean
[3] = DD2, cell line S2 - Clone A3, read-out: EC50 [nM] mean
[4] = DD2, cell line S2 - Clone B9, read-out: EC50 [nM] mean
[5] = DD2, cell line S2 - Clone C5, read-out: EC50 [nM] mean
[6] = DD2, cell line S3 - Clone B3, read-out: EC50 [nM] mean
[7] = DD2, cell line S3 - Clone B7, read-out: EC50 [nM] mean
[8] = DD2, read-out: EC50 [nM] mean, cell line S3 - Clone B2

Nc1ncnc2c1ncn2[C@@H]1O[C@H](COS(=O)(=O)NC(=O)[C@@H]2CCCN2)[C@@H](O)[C@H]1O [ProSA, reference compound]
normalized TR-FRET signal (Fig 2k) (HsProRS; Log[inhibitor] (M) -10.319): 9.27E-01 and 5.96E-01 and 5.68E-01 and 6.24E-01 and 7.95E-01 and 4.77E-01 | normalized TR-FRET signal (Fig 2k) (HsProRS; Log[inhibitor] (M) -10.921): 1.19E+00 and 1.45E+00 and 8.99E-01 and 1.44E+00 | normalized TR-FRET signal (Fig 2k) (HsProRS; Log[inhibitor] (M) -11.098): 1.29E+00 and 1.17E+00 and 7.99E-01 and 9.06E-01 | normalized TR-FRET signal (Fig 2i) (HsProRS; Log[inhibitor] (M) -8.208): 2.86E-01 and 2.69E-01 and 2.23E-01 | normalized TR-FRET signal (Fig 2j) (HsProRS; Log[inhibitor] (M) -8.208): 2.20E-01 and 2.14E-01 and 2.31E-01 | normalized TR-FRET signal (Fig 2i) (HsProRS; Log[inhibitor] (M) -8.509): 5.48E-01 and 5.47E-01 and 6.11E-01 | normalized TR-FRET signal (Fig 2j) (HsProRS; Log[inhibitor] (M) -8.509): 6.99E-01 and 6.28E-01 and 5.28E-01 | normalized TR-FRET signal (Fig 2i) (HsProRS; Log[inhibitor] (M) -8.796): 8.53E-01 and 8.04E-01 and 8.09E-01 | normalized TR-FRET signal (Fig 2j) (HsProRS; Log[inhibitor] (M) -8.796): 7.16E-01 and 7.19E-01 and 8.75E-01 | normalized TR-FRET signal (Fig 2i) (HsProRS; Log[inhibitor] (M) -9.108): 9.05E-01 and 8.48E-01 and 8.77E-01 | normalized TR-FRET signal (Fig 2j) (HsProRS; Log[inhibitor] (M) -9.108): 8.43E-01 and 8.74E-01 and 8.91E-01 | normalized TR-FRET signal (Fig 2i) (HsProRS; Log[inhibitor] (M) -9.409): 8.95E-01 | normalized TR-FRET signal (Fig 2j) (HsProRS; Log[inhibitor] (M) -10.602): 8.90E-01 | normalized TR-FRET signal (dose-response replicates) (HsProRS; Log[inhibitor] (M) -7.601): -6.47E-02 and -3.87E-03 and 4.40E-03 | normalized TR-FRET signal (dose-response replicates) (HsProRS; Log[inhibitor] (M) -7.904): 4.29E-02 and -1.08E-01 and 6.52E-02 | normalized TR-FRET signal (dose-response replicates) (HsProRS; Log[inhibitor] (M) -8.208): 2.09E-01 and 4.52E-01 and 3.79E-01 | normalized TR-FRET signal (dose-response replicates) (HsProRS; Log[inhibitor] (M) -8.509): 6.59E-01 and 7.25E-01 and 6.81E-01 | normalized TR-FRET signal (dose-response replicates) (HsProRS; Log[inhibitor] (M) -8.796): 8.90E-01 and 6.94E-01 and 8.02E-01 | normalized TR-FRET signal (dose-response replicates) (HsProRS; Log[inhibitor] (M) -9.108): 8.78E-01 and 8.82E-01 | normalized TR-FRET signal (dose-response replicates) (HsProRS; Log[inhibitor] (M) -10.301): 9.09E-01 | normalized TR-FRET signal (dose-response replicates) (HsProRS; Log[inhibitor] (M) -10.602): 1.29E+00 | normalized TR-FRET signal (dose-response replicates) (HsProRS; Log[inhibitor] (M) -11): 9.02E-01 | EC50 [1, 2]: 258 nM | EC50 [1, 3]: 209 nM | EC50 [1, 4]: 267 nM | EC50 [1, 5]: 243 nM | EC50 [1, 6]: 593 nM | EC50 [1, 7]: 909 nM | EC50 [1, 8]: 838 nM | EC50 (P. falciparum Dd2-2D4; DD2, SI Fig 16b, values on -log scale, read-out: ABS - Dd2-2D4 (converted)): 151 nM

C[C@@H]1C[C@H](C)C[C@H](C)[C@@H](O)CC(=O)O[C@H]([C@@H]2CCC[C@H]2C(=O)O)C/C=C/C=C(/C#N)[C@H](O)[C@@H](C)C1 [Borrelidin, borrelidin, reference compound]
EC50 [1, 2]: 1.5 nM | EC50 ([1]; DD2, cell line S1 - bulk population, read-out: EC50 [nM] mean): 1.45 nM | EC50 [1, 3]: 1.6 nM | EC50 [1, 4]: 4.67 nM | EC50 [1, 5]: 1.51 nM | EC50 ([1]; DD2, cell line S2 - bulk population, read-out: EC50 [nM] mean): 1.3 nM | EC50 [1, 6]: 1.34 nM | EC50 [1, 7]: 1.38 nM | EC50 ([1]; DD2, cell line S3 - bulk population, read-out: EC50 [nM] mean): 1.3 nM | EC50 [1, 8]: 5.92 nM | Fold-change Resistance ([1]; S2 - Clone B9): 1.46 and 0.77 | Fold-change Resistance ([1]; S3 - Clone B2): 1.02 and 1.96 | EC50 (P. falciparum Dd2-2D4; cell line Dd2-2D4 (parent), read-out: EC50 [nM] mean): 6.05 nM
